Drawing on patent US20110257208A1, “COMPOUNDS USEFUL AS FAAH MODULATORS AND USES THEREOF” (priority 2008, published 2011), this text covers inhibition for ten compounds.

Molecules are shown by their SMILES. Bounds are passed on as bounds.

This experiment concerns the target T1, hFAAH (Homo sapiens, UniProt O00519).
T1 construct: expressed in transfected cells; host or cells: HEK293-TRex (Invitrogen) stably transfected with hFAAH in the pcDNA5-Tet-off vector, or T84 human colon epithelial cells (endogenous hFAAH); used as a microsomal preparation
T1 sequence (O00519 1-579): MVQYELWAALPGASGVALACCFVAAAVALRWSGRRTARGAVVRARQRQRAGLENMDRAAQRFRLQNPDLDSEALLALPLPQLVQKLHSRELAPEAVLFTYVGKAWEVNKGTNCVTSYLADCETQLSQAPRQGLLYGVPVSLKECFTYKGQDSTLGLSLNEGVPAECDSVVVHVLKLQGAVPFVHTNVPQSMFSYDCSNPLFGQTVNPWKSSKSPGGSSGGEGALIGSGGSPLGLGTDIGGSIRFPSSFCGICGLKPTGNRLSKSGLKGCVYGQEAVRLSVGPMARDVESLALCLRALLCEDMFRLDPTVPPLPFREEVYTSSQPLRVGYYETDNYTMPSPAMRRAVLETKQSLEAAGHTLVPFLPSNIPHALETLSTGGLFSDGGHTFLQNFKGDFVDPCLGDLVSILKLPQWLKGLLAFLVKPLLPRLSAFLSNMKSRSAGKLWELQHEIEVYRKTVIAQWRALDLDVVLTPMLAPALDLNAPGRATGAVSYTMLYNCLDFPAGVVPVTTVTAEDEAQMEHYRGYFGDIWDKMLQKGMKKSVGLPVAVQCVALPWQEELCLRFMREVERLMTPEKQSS
Briefly: Fluorimetric assay with hFAAH microsomes (enzymatic, fluorescence based). The experiment is classed as biochemical. Conditions: compound at 1 uM, AA-AMC substrate. Put shortly:
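Microsomes from T84 cells (endogenous hFAAH) or doxycycline-induced HEK293-TRex cells stably expressing hFAAH, 10 μg per well, in 50 mM HEPES pH 7.4, 1 mM EDTA, 1.4 mg/mL BSA with 2 μM AA-AMC. Kinetic fluorescence read (ex 355/em 460 nm, 275 cycles); activity as % inhibition, 7 concentrations in duplicate.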
For `CSc1ccccc1CN1Cc2ncnc(Nc3cnc4ccccc4c3)c2C1` [Compound 102, [6-(2-Methylsulfanyl-benzyl)-6,7-dihydro-5H-pyrrolo[3,4-d]pyrimidin-4-yl]-quinolin-3-yl-amine], the inhibition (as a rule, the drop in the measured response relative to a control, in per cent) at 1 µM was over 75%.

In turn, `c1cc(CN2Cc3ncnc(Nc4cnc5ccccc5c4)c3C2)c2c(c1)OCO2` [Compound 103, (6-Benzo[1,3]dioxol-4-ylmethyl-6,7-dihydro-5H-pyrrolo[3,4-d]pyrimidin-4-yl)-quinolin-3-yl-amine] gave an inhibition at 1 µM of over 75%. The compound `FC(F)(F)Oc1cccc(CN2Cc3ncnc(Nc4cnc5ccccc5c4)c3C2)c1` [Compound 104, Quinolin-3-yl-[6-(3-trifluoromethoxy-benzyl)-6,7-dihydro-5H-pyrrolo[3,4-d]pyrimidin-4-yl]-amine] came in with an inhibition at 1 µM of over 75%. `FC(F)Oc1ccccc1CN1Cc2ncnc(Nc3cnc4ccccc4c3)c2C1` [Compound 105, [6-(2-Difluoromethoxy-benzyl)-6,7-dihydro-5H-pyrrolo[3,4-d]pyrimidin-4-yl]-quinolin-3-yl-amine] came in with an inhibition at 1 µM of over 75%. The figure for `COc1cccc(CN2Cc3ncnc(Nc4cnc5ccccc5c4)c3C2)c1` [Compound 106, [6-(3-Methoxy-benzyl)-6,7-dihydro-5H-pyrrolo[3,4-d]pyrimidin-4-yl]-quinolin-3-yl-amine] is over 75%; for `Fc1cccc(CN2Cc3ncnc(Nc4cnc5ccccc5c4)c3C2)c1F` [Compound 107, [6-(2,3-Difluoro-benzyl)-6,7-dihydro-5H-pyrrolo[3,4-d]pyrimidin-4-yl]-quinolin-3-yl-amine] it is over 75%; for `CCCOc1ccccc1CN1Cc2ncnc(Nc3cnc4ccccc4c3)c2C1` [Compound 108, [6-(2-Propoxy-benzyl)-6,7-dihydro-5H-pyrrolo[3,4-d]pyrimidin-4-yl]-quinolin-3-yl-amine] it is over 50%. The result for `CC(C)Oc1ccccc1CN1Cc2ncnc(Nc3cnc4ccccc4c3)c2C1` [Compound 109, [6-(2-Isopropoxy-benzyl)-6,7-dihydro-5H-pyrrolo[3,4-d]pyrimidin-4-yl]-quinolin-3-yl-amine] reads over 50%; that for `c1ccc2ncc(Nc3ncnc4c3CN(Cc3cccc5cc[nH]c35)C4)cc2c1` [Compound 110, [6-(1H-Indol-7-ylmethyl)-6,7-dihydro-5H-pyrrolo[3,4-d]pyrimidin-4-yl]-quinolin-3-yl-amine], over 75%; that for `c1ccc(C2CC2)c(CN2Cc3ncnc(Nc4cnc5ccccc5c4)c3C2)c1` [Compound 112, [6-(2-Cyclopropyl-benzyl)-6,7-dihydro-5H-pyrrolo[3,4-d]pyrimidin-4-yl]-quinolin-3-yl-amine], over 75%.
